Results as given in PubChem BioAssay (NCI).
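These data come from cells grown in 96-well plates and exposed to compound for 48 hours at five concentrations. TGI: concentration producing complete growth inhibition.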

How the values were obtained:
Assay in all cases: NCI tumour cell line growth inhibition, 48 h
786-0 renal = test system: 786-0 renal
A498 renal = test system: A498 renal
A549 NSCLC = test system: A549 NSCLC
ACHN renal = test system: ACHN renal
CCRF-CEM leukemia = test system: CCRF-CEM leukemia
DLD-1 colon = test system: DLD-1 colon
EKVX NSCLC = test system: EKVX NSCLC
HCC-2998 colon = test system: HCC-2998 colon
HCT-116 colon = test system: HCT-116 colon
HCT-15 colon = test system: HCT-15 colon
HL-60(TB) leukemia = test system: HL-60(TB) leukemia
HOP-62 NSCLC = test system: HOP-62 NSCLC
HOP-92 NSCLC = test system: HOP-92 NSCLC
HT29 colon = test system: HT29 colon
IGROV1 ovarian = test system: IGROV1 ovarian
K-562 leukemia = test system: K-562 leukemia
KM12 colon = test system: KM12 colon
KM20L2 colon = test system: KM20L2 colon
LOX IMVI melanoma = test system: LOX IMVI melanoma
LXFL 529 NSCLC = test system: LXFL 529 NSCLC
M14 melanoma = test system: M14 melanoma
M19-MEL melanoma = test system: M19-MEL melanoma
MALME-3M melanoma = test system: MALME-3M melanoma
MOLT-4 leukemia = test system: MOLT-4 leukemia
NCI-H226 lung = test system: NCI-H226 lung
NCI-H23 lung = test system: NCI-H23 lung
NCI-H460 lung = test system: NCI-H460 lung
OVCAR-4 ovarian = test system: OVCAR-4 ovarian
OVCAR-8 ovarian = test system: OVCAR-8 ovarian
RXF-631 renal = test system: RXF-631 renal
SF-268 CNS = test system: SF-268 CNS
SF-295 CNS = test system: SF-295 CNS
SF-539 CNS = test system: SF-539 CNS
SK-MEL-2 melanoma = test system: SK-MEL-2 melanoma
SK-MEL-28 melanoma = test system: SK-MEL-28 melanoma
SK-MEL-5 melanoma = test system: SK-MEL-5 melanoma
SK-OV-3 ovarian = test system: SK-OV-3 ovarian
SN12C renal = test system: SN12C renal
SNB-19 CNS = test system: SNB-19 CNS
SNB-75 CNS = test system: SNB-75 CNS
SNB-78 CNS = test system: SNB-78 CNS
SR leukemia = test system: SR leukemia
SW-620 colon = test system: SW-620 colon
TK-10 renal = test system: TK-10 renal
U251 CNS = test system: U251 CNS
UACC-257 melanoma = test system: UACC-257 melanoma
UACC-62 melanoma = test system: UACC-62 melanoma
UO-31 renal = test system: UO-31 renal
COLO 205 colon = test system: COLO 205 colon
HOP-18 NSCLC = test system: HOP-18 NSCLC
NCI-H522 lung = test system: NCI-H522 lung
OVCAR-3 ovarian = test system: OVCAR-3 ovarian
OVCAR-5 ovarian = test system: OVCAR-5 ovarian
RPMI-8226 leukemia = test system: RPMI-8226 leukemia
RXF 393 renal = test system: RXF 393 renal
XF 498 CNS = test system: XF 498 CNS
BT-549 breast = test system: BT-549 breast
CAKI-1 renal = test system: CAKI-1 renal
DMS 114 small cell lung = test system: DMS 114 small cell lung
DU-145 prostate = test system: DU-145 prostate
HS 578T breast = test system: HS 578T breast
MCF7 breast = test system: MCF7 breast
MDA-MB-231 breast = test system: MDA-MB-231 breast
MDA-MB-435 = test system: MDA-MB-435
MDA-N = test system: MDA-N
NCI/ADR-RES ovarian = test system: NCI/ADR-RES ovarian
PC-3 prostate = test system: PC-3 prostate
T-47D breast = test system: T-47D breast

With `C/C(=N\NC(=O)C(N)=O)c1c(O)cc(C)oc1=O` the TGI (786-0 renal) was over 100 µM, the TGI (A498 renal) was over 100 µM and the TGI (A549 NSCLC) was over 100 µM. For the same compound, the TGI (ACHN renal) was over 100 µM, the TGI (CCRF-CEM leukemia) was over 100 µM and the TGI (DLD-1 colon) was over 100 µM. It also gave a TGI (EKVX NSCLC) of over 100 µM, a TGI (HCC-2998 colon) of over 100 µM and a TGI (HCT-116 colon) of over 100 µM. The TGI (HCT-15 colon) was over 100 µM, the TGI (HL-60(TB) leukemia) was over 100 µM and the TGI (HOP-62 NSCLC) was over 100 µM. It also gave a TGI (HOP-92 NSCLC) of over 100 µM, a TGI (HT29 colon) of over 100 µM and a TGI (IGROV1 ovarian) of over 100 µM. It also gave a TGI (K-562 leukemia) of over 100 µM, a TGI (KM12 colon) of over 100 µM and a TGI (KM20L2 colon) of over 100 µM. The TGI (LOX IMVI melanoma) was over 100 µM, the TGI (LXFL 529 NSCLC) was over 100 µM and the TGI (M14 melanoma) was over 100 µM. It also gave a TGI (M19-MEL melanoma) of over 100 µM, a TGI (MALME-3M melanoma) of over 100 µM and a TGI (MOLT-4 leukemia) of over 100 µM. It also gave a TGI (NCI-H226 lung) of over 100 µM, a TGI (NCI-H23 lung) of over 100 µM and a TGI (NCI-H460 lung) of over 100 µM. For the same compound, the TGI (OVCAR-4 ovarian) was over 100 µM, the TGI (OVCAR-8 ovarian) was over 100 µM and the TGI (RXF-631 renal) was over 100 µM. It also gave a TGI (SF-268 CNS) of over 100 µM, a TGI (SF-295 CNS) of over 100 µM and a TGI (SF-539 CNS) of over 100 µM. The TGI (SK-MEL-2 melanoma) was over 100 µM, the TGI (SK-MEL-28 melanoma) was over 100 µM and the TGI (SK-MEL-5 melanoma) was over 100 µM. The TGI (SK-OV-3 ovarian) was over 100 µM, the TGI (SN12C renal) was over 100 µM and the TGI (SNB-19 CNS) was over 100 µM. For the same compound, the TGI (SNB-75 CNS) was over 100 µM, the TGI (SNB-78 CNS) was over 100 µM and the TGI (SR leukemia) was over 100 µM. The TGI (SW-620 colon) was over 100 µM, the TGI (TK-10 renal) was over 100 µM and the TGI (U251 CNS) was over 100 µM. The TGI (UACC-257 melanoma) was over 100 µM, the TGI (UACC-62 melanoma) was over 100 µM and the TGI (UO-31 renal) was over 100 µM.
In the case of `COCCOCOC(C)(C)[C@H](CCO)O[Si](c1ccccc1)(c1ccccc1)C(C)(C)C`, the TGI (A498 renal) is reported as 31.6 µM, the TGI (A549 NSCLC) is reported as 22.1 µM and the TGI (ACHN renal) is reported as 18.9 µM. For the same compound, the TGI (COLO 205 colon) was 33.9 µM, the TGI (DLD-1 colon) was 22.4 µM and the TGI (EKVX NSCLC) was 29.5 µM. For the same compound, the TGI (HCC-2998 colon) was 18.9 µM, the TGI (HCT-116 colon) was 14.1 µM and the TGI (HCT-15 colon) was 17.5 µM. The TGI (HL-60(TB) leukemia) was 9.05 µM, the TGI (HOP-18 NSCLC) was 31.9 µM and the TGI (HOP-92 NSCLC) was 23.6 µM. For the same compound, the TGI (HT29 colon) was 21.4 µM, the TGI (IGROV1 ovarian) was 22.9 µM and the TGI (KM12 colon) was 31.9 µM. It also gave a TGI (KM20L2 colon) of 24.4 µM, a TGI (LOX IMVI melanoma) of 23.3 µM and a TGI (LXFL 529 NSCLC) of 21.6 µM. The TGI (M14 melanoma) was 21.8 µM, the TGI (M19-MEL melanoma) was 26.9 µM and the TGI (MALME-3M melanoma) was 30.5 µM. For the same compound, the TGI (MOLT-4 leukemia) was 22.9 µM, the TGI (NCI-H23 lung) was 35.9 µM and the TGI (NCI-H460 lung) was 22.3 µM. It also gave a TGI (NCI-H522 lung) of 15.4 µM, a TGI (OVCAR-3 ovarian) of 22.2 µM and a TGI (OVCAR-5 ovarian) of 27.5 µM. For the same compound, the TGI (OVCAR-8 ovarian) was 23.5 µM, the TGI (RPMI-8226 leukemia) was 35.5 µM and the TGI (RXF 393 renal) was 17.8 µM. It also gave a TGI (RXF-631 renal) of 21.7 µM, a TGI (SF-268 CNS) of 22.5 µM and a TGI (SF-295 CNS) of 18.6 µM. It also gave a TGI (SF-539 CNS) of 27.4 µM, a TGI (SK-MEL-28 melanoma) of 29.7 µM and a TGI (SK-MEL-5 melanoma) of 26.7 µM. The TGI (SK-OV-3 ovarian) was 26.5 µM, the TGI (SN12C renal) was 12.7 µM and the TGI (SNB-19 CNS) was 31.7 µM. It also gave a TGI (SNB-75 CNS) of 21.6 µM, a TGI (SNB-78 CNS) of 35.1 µM and a TGI (SR leukemia) of 16.3 µM. It also gave a TGI (SW-620 colon) of 25.2 µM, a TGI (TK-10 renal) of 23 µM and a TGI (U251 CNS) of 24.5 µM. The TGI (UACC-257 melanoma) was 23.5 µM, the TGI (UACC-62 melanoma) was 28.3 µM and the TGI (UO-31 renal) was 26.9 µM. The TGI (XF 498 CNS) was 13.5 µM.
For `c1ccc(CN2COc3c(ccc4c5c(ccc34)CN(Cc3ccccc3)CO5)C2)cc1`, the TGI (786-0 renal) was over 100 µM, the TGI (A498 renal) was over 100 µM and the TGI (A549 NSCLC) was over 100 µM. The TGI (ACHN renal) was over 100 µM, the TGI (BT-549 breast) was over 100 µM and the TGI (CAKI-1 renal) was over 100 µM. It also gave a TGI (CCRF-CEM leukemia) of over 100 µM, a TGI (COLO 205 colon) of over 100 µM and a TGI (DLD-1 colon) of over 100 µM. For the same compound, the TGI (DMS 114 small cell lung) was over 100 µM, the TGI (DU-145 prostate) was over 100 µM and the TGI (EKVX NSCLC) was over 100 µM. It also gave a TGI (HCC-2998 colon) of over 100 µM, a TGI (HCT-116 colon) of over 100 µM and a TGI (HCT-15 colon) of over 100 µM. The TGI (HL-60(TB) leukemia) was over 100 µM, the TGI (HOP-18 NSCLC) was over 100 µM and the TGI (HOP-62 NSCLC) was over 100 µM. The TGI (HOP-92 NSCLC) was over 100 µM, the TGI (HS 578T breast) was over 100 µM and the TGI (HT29 colon) was over 100 µM. It also gave a TGI (IGROV1 ovarian) of over 100 µM, a TGI (K-562 leukemia) of over 100 µM and a TGI (KM12 colon) of over 100 µM. For the same compound, the TGI (KM20L2 colon) was over 100 µM, the TGI (LOX IMVI melanoma) was over 100 µM and the TGI (LXFL 529 NSCLC) was over 100 µM. For the same compound, the TGI (M14 melanoma) was over 100 µM, the TGI (M19-MEL melanoma) was over 100 µM and the TGI (MALME-3M melanoma) was over 100 µM. The TGI (MCF7 breast) was over 100 µM, the TGI (MDA-MB-231 breast) was over 100 µM and the TGI (MDA-MB-435) was over 100 µM. For the same compound, the TGI (MDA-N) was over 100 µM, the TGI (MOLT-4 leukemia) was over 100 µM and the TGI (NCI-H226 lung) was over 100 µM. For the same compound, the TGI (NCI-H23 lung) was over 100 µM, the TGI (NCI-H460 lung) was over 100 µM and the TGI (NCI-H522 lung) was over 100 µM. It also gave a TGI (NCI/ADR-RES ovarian) of over 100 µM, a TGI (OVCAR-3 ovarian) of over 100 µM and a TGI (OVCAR-4 ovarian) of over 100 µM. For the same compound, the TGI (OVCAR-5 ovarian) was over 100 µM, the TGI (OVCAR-8 ovarian) was over 100 µM and the TGI (PC-3 prostate) was over 100 µM. It also gave a TGI (RPMI-8226 leukemia) of over 100 µM, a TGI (RXF 393 renal) of over 100 µM and a TGI (RXF-631 renal) of over 100 µM. The TGI (SF-268 CNS) was over 100 µM, the TGI (SF-295 CNS) was over 100 µM and the TGI (SF-539 CNS) was over 100 µM. It also gave a TGI (SK-MEL-2 melanoma) of over 100 µM, a TGI (SK-MEL-28 melanoma) of over 100 µM and a TGI (SK-MEL-5 melanoma) of over 100 µM. The TGI (SK-OV-3 ovarian) was over 100 µM, the TGI (SN12C renal) was over 100 µM and the TGI (SNB-19 CNS) was over 100 µM. For the same compound, the TGI (SNB-75 CNS) was over 100 µM, the TGI (SNB-78 CNS) was over 100 µM and the TGI (SR leukemia) was over 100 µM. It also gave a TGI (SW-620 colon) of over 100 µM, a TGI (T-47D breast) of over 100 µM and a TGI (TK-10 renal) of over 100 µM. For the same compound, the TGI (U251 CNS) was over 100 µM, the TGI (UACC-257 melanoma) was over 100 µM and the TGI (UACC-62 melanoma) was over 100 µM. The TGI (UO-31 renal) was over 100 µM.
